The values that follow come from patent US20240343813A1, “COMBINATION THERAPY AND RELATED METHODS” (Bicara Therapeutics Inc., priority 2023, published 2024).

In data set [1] the test system is TGFβ-induced hKRAS G12C resistant lung cancer cell line (H1792). Description: CellTiter Glo cytotoxicity in TGFβ-induced hKRAS G12C inhibitor resistant cells. In kind it is cell-based. Particulars: long-term TGFβ treated H1792 cells compared to control H1792 cells (wild type); 72 hours. Here is the method:
Reports have shown that hKRAS G12C inhibitor efficacy is higher in cancer cells with a low epithelial-mesenchymal transition (EMT) signature compared to a high EMT signature. hTGFβ is known to induce EMT through canonical and non-canonical pathways in various cancers.
Briefly, hKRAS G12C inhibitor resistance was induced in H1792 cells by treating the cells with hTGFβ (4 ng/ml) for at least two weeks. […] Cytotoxicity was evaluated using the CellTiter Glo® Luminescent Cell Viability Assay according to manufacturer's instructions (Promega) (as described in Example 6.3).

For data set [2], the system named is H358 lung cancer cells. The data set can be described thus: Long-term hKRAS G12C inhibitor treatment-induced resistance. Type of data set: cell-based. Particulars: H358 treated with increasing concentrations of AMG510 for about one month; vs control (wild type) H358. Here is the method: The effect of long duration treatment with a hKRAS G12C inhibitor on acquired hKRAS G12C inhibitor resistance was assessed utilizing an in vitro lung cancer model (H358). Briefly, H358 lung cancer cells were treated with increasing concentrations of the hKRAS G12C inhibitor AMG510 for about one month and cytotoxicity induced by AMG510 subsequently evaluated.

As for `C=CC(=O)N1CCN(c2nc(=O)n(-c3c(C)ccnc3C(C)C)c3nc(-c4c(O)cccc4F)c(F)cc23)[C@@H](C)C1` [AMG510, 6-fluoro-7-(2-fluoro-6-hydroxyphenyl)-(1M)-1-[4-methyl-2-(propan-2-yl)pyridin-3-yl]-4-[(2S)-2-methyl-4-(prop-2enoyl)piperazin-1-yl]pyrido[2,3-d]pyrimidin-2 (1H)-one], the “cytotoxicity in response to AMG510 treatment” value in data set [1] was “less cytotoxicity”. Also, in data set [2], the “acquired KRAS G12C inhibitor resistance (percent viability)” value is reported as “developed KRAS G12C inhibitor (AMG510) resistance”.
